The source of these data is patent US11649255B2, “Indazoles as hematopoietic progenitor kinase 1 (HPK1) inhibitors and methods using same” (1st Biotherapeutics, Inc., priority 2020, dated 2023).

Bounds are passed on as bounds.

Sequence of recombinant human HPK1 (Q92918 whole entry): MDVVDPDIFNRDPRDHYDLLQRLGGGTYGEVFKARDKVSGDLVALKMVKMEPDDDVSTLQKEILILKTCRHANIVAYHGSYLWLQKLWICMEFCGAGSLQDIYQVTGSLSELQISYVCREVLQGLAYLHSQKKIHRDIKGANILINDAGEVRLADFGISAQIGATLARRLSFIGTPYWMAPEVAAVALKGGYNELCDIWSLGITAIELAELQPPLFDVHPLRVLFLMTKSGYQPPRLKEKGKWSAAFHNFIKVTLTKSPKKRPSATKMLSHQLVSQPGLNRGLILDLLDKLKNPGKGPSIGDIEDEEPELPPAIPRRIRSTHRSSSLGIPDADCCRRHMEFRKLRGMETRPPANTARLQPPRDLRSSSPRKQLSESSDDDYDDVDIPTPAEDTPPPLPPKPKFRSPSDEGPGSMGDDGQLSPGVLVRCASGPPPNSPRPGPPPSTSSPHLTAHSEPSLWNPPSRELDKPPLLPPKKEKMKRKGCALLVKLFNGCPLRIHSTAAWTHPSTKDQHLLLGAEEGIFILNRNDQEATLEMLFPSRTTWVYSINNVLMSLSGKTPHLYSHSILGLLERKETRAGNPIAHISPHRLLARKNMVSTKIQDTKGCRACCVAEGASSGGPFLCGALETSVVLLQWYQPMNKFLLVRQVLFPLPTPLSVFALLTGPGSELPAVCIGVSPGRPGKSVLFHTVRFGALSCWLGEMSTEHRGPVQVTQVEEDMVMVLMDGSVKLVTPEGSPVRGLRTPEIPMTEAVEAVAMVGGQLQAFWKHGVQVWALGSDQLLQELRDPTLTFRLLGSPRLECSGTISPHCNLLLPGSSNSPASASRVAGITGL

In the first assay the target is recombinant human HPK1 (Homo sapiens (Human), UniProt Q92918). The assay is described as follows: HPK1 kinase assay (ADP-Glo). The assay is classed as biochemical. Particulars: 25 μM ATP, MBP substrate. In outline:
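Activity was read as ADP formed, detected by ADP-Glo luminescence after the reaction of 5 ng recombinant human HPK1 with MBP and ATP (stocks 0.5 μg/μl and 25 μM) for 40 min at 30 °C. Buffer was Tris pH 7.5 with MgCl2, BSA and DTT, with compound in 0.5% DMSO. IC50 came from inhibition curves.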
A general note: In ADP-Glo the light output rises with the ADP produced.
What is called IC50 is the midpoint of a concentration-inhibition curve. `O=C(Nc1nc2ccc(-c3c(-c4ccsc4)ccc4[nH]ncc34)cc2s1)C1CC1` [Example 18, N-(6-(5-(thiophen-3-yl)-1H-indazol-4-yl)benzo[d]thiazol-2-yl)cyclopropanecarboxamide]: the IC50 is above 1 µM.

As to `COc1cc(C)c(-c2ccn3nc(NC(=O)[C@@H]4C[C@@H]4F)cc3c2)c2cn[nH]c12` [Example 506, (1S,2S)-2-fluoro-N-(5-(7-methoxy-5-methyl-1H-indazol-4-yl)pyrazolo[1,5-a]pyridin-2-yl)cyclopropane-1-carboxamide], the half-maximal inhibitory concentration (IC50) was below 0.1 µM.

With `CN(C)C(=O)CSc1c(F)c(Cl)c(-c2ccc3nc(NC(=O)[C@@H]4C[C@@H]4F)sc3c2)c2cn[nH]c12` [Example 99, (1S,2S)-N-(6-(5-chloro-7-((2-(dimethylamino)-2-oxoethyl)thio)-6-fluoro-1H-indazol-4-yl)benzo[d]thiazol-2-yl)-2-fluorocyclopropane-1-carboxamide], the IC50 was below 0.1 µM.

As to `COCc1c(F)c(Cl)c(-c2ccc3nc(NC(=O)[C@@H]4C[C@@H]4F)cn3c2)c2cn[nH]c12` [Example 390, (1S,2S)-N-(6-(5-chloro-6-fluoro-7-(methoxymethyl)-1H-indazol-4-yl)imidazo[1,2-a]pyridin-2-yl)-2-fluorocyclopropane-1-carboxamide], the half-maximal inhibitory concentration (IC50) is below 0.1 µM.

As to `CN(C)c1ccc(-c2ccn3nc(NC(=O)[C@@H]4C[C@@H]4F)cc3c2)c2cn[nH]c12` [Example 595, (1S,2S)-N-(5-(7-(dimethylamino)-1H-indazol-4-yl)pyrazolo[1,5-a]pyridin-2-yl)-2-fluorocyclopropane-1-carboxamide], the IC50 lay in the range of 0.101 to 0.5 µM.

As to `CN(C)c1c(F)cc(-c2ccn3nc(NC(=O)[C@@H]4C[C@@H]4F)cc3c2)c2cn[nH]c12` [Example 583, (1S,2S)-N-(5-(7-(dimethylamino)-6-fluoro-1H-indazol-4-yl)pyrazolo[1,5-a]pyridin-2-yl)-2-fluorocyclopropane-1-carboxamide], the half-inhibitory concentration (IC50) was below 0.1 µM.

For the compound `O=C(Nc1cn2cc(-c3c(Cl)c(F)c(N4CCCC4=O)c4[nH]ncc34)ccc2n1)[C@@H]1C[C@@H]1F` [Example 336, (1S,2S)-N-(6-(5-chloro-6-fluoro-7-(2-oxopyrrolidin-1-yl)-1H-indazol-4-yl)imidazo[1,2-a]pyridin-2-yl)-2-fluorocyclopropane-1-carboxamide], the 50% inhibitory concentration (IC50) is below 0.1 µM.

Consider `CC(C#N)N(C(=O)OCc1ccccc1)c1c(F)c(Cl)c(-c2ccn3nc(NC(=O)[C@@H]4C[C@@H]4F)cc3c2)c2cn[nH]c12` (stereo partly drawn) [Example 643, benzyl (5-chloro-6-fluoro-4-(2-((1S,2S)-2-fluorocyclopropane-1-carboxamido)pyrazolo[1,5-a]pyridin-5-yl)-1H-indazol-7-yl)(1-cyanoethyl)carbamate], for which the half-inhibitory concentration (IC50) lay in the range of 0.101 to 0.5 µM.

Regarding `COc1c(F)cc2[nH]ncc2c1-c1ccn2nc(NC(=O)[C@@H]3C[C@@H]3F)cc2c1` [Example 467, (1S,2S)-2-fluoro-N-(5-(6-fluoro-5-methoxy-1H-indazol-4-yl)pyrazolo[1,5-a]pyridin-2-yl)cyclopropane-1-carboxamide], the IC50 is below 0.1 µM.

As to `CC(C#N)Nc1c(F)c(Cl)c(-c2ccn3nc(NC(=O)[C@@H]4C[C@@H]4F)cc3c2)c2cn[nH]c12` (stereo partly drawn) [Example 641, (1S,2S)-N-(5-(5-chloro-7-((1-cyanoethyl)amino)-6-fluoro-1H-indazol-4-yl)pyrazolo[1,5-a]pyridin-2-yl)-2-fluorocyclopropane-1-carboxamide], the IC50 was below 0.1 µM.

Regarding `CN(C)c1c(F)cc(-c2ccc3nc(NC(=O)[C@@H]4C[C@@H]4F)sc3n2)c2cn[nH]c12` [Example 214, (1S,2S)-N-(5-(7-(dimethylamino)-6-fluoro-1H-indazol-4-yl)thiazolo[5,4-b]pyridin-2-yl)-2-fluorocyclopropane-1-carboxamide], the IC50 was above 1 µM.

Take `C[S+]([O-])c1c(F)c(Cl)c(-c2ccc3nc(NC(=O)[C@@H]4C[C@@H]4F)cn3c2)c2cn[nH]c12` (stereo partly drawn) [Example 303, (1S,2S)-N-(6-(5-chloro-6-fluoro-7-(methylsulfinyl)-1H-indazol-4-yl)imidazo[1,2-a]pyridin-2-yl)-2-fluorocyclopropane-1-carboxamide]: the half-maximal inhibitory concentration (IC50) is below 0.1 µM.

`O=C(Nc1cc2cc(-c3c(C(F)F)c(F)cc4[nH]ncc34)ccn2n1)[C@@H]1C[C@@H]1F` [Example 468, (1S,2S)-N-(5-(5-(difluoromethyl)-6-fluoro-1H-indazol-4-yl)pyrazolo[1,5-a]pyridin-2-yl)-2-fluorocyclopropane-1-carboxamide]: the IC50 was below 0.1 µM.

Consider `CCc1ccc2[nH]ncc2c1-c1ccc2nc(NC(=O)C3CC3)sc2c1` [Example 28, N-(6-(5-ethyl-1H-indazol-4-yl)benzo[d]thiazol-2-yl)cyclopropanecarboxamide], for which the IC50 is 0.101 to 0.5 µM.

As to `CCc1c(F)c(F)c2[nH]ncc2c1-c1ccc2nc(NC(=O)[C@@H]3C[C@@H]3F)cn2c1` [Example 298, (1S,2S)-N-(6-(5-ethyl-6,7-difluoro-1H-indazol-4-yl)imidazo[1,2-a]pyridin-2-yl)-2-fluorocyclopropane-1-carboxamide], the half-maximal inhibitory concentration (IC50) is below 0.1 µM.

With `CS(=O)(=O)c1c(F)c(Cl)c(-c2ccc3nc(NC(=O)[C@@H]4C[C@@H]4F)cn3c2)c2cn[nH]c12` [Example 267, (1S,2S)-N-(6-(5-chloro-6-fluoro-7-(methylsulfonyl)-1H-indazol-4-yl)imidazo[1,2-a]pyridin-2-yl)-2-fluorocyclopropane-1-carboxamide], the IC50 was in the range of 0.101 to 0.5 µM.

For the compound `N#Cc1c(F)c(Cl)c(-c2ccc3nc(NC(=O)[C@@H]4C[C@@H]4F)cn3c2)c2cn[nH]c12` [Example 351, (1S,2S)-N-(6-(5-chloro-7-cyano-6-fluoro-1H-indazol-4-yl)imidazo[1,2-a]pyridin-2-yl)-2-fluorocyclopropane-1-carboxamide], the IC50 was below 0.1 µM.

Regarding `C[C@H](c1c(F)c(Cl)c(-c2ccc3nc(NC(=O)[C@@H]4C[C@@H]4F)cn3c2)c2cn[nH]c12)n1ncnn1` [Example 407, (1S,2S)-N-(6-(7-((R)-1-(2H-tetrazol-2-yl)ethyl)-5-chloro-6-fluoro-1H-indazol-4-yl)imidazo[1,2-a]pyridin-2-yl)-2-fluorocyclopropane-1-carboxamide], the concentration for half-maximal inhibition (IC50) is below 0.1 µM.

As for `CCN(CC)c1c(F)c(Cl)c(-c2ccc3nc(NC(=O)[C@@H]4C[C@@H]4F)cn3c2)c2cn[nH]c12` [Example 281, (1S,2S)-N-(6-(5-chloro-7-(diethylamino)-6-fluoro-1H-indazol-4-yl)imidazo[1,2-a]pyridin-2-yl)-2-fluorocyclopropane-1-carboxamide], the IC50 was below 0.1 µM.

In the case of `CN(C)c1ccc2[nH]ncc2c1-c1ccc2nc(NC(=O)C3CC3)cn2c1` [Example 230, N-(6-(5-(dimethylamino)-1H-indazol-4-yl)imidazo[1,2-a]pyridin-2-yl)cyclopropanecarboxamide], the half-inhibitory concentration (IC50) is above 1 µM.

With `CSc1c(F)c(Cl)c(-c2ccc3nc(NC(=O)[C@@H]4C[C@@H]4F)sc3c2)c2cn[nH]c12` [Example 58, (1S,2S)-N-(6-(5-chloro-6-fluoro-7-(methylthio)-1H-indazol-4-yl)benzo[d]thiazol-2-yl)-2-fluorocyclopropane-1-carboxamide], the 50% inhibitory concentration (IC50) was below 0.1 µM.

For `O=C(Nc1nc2ccc(-c3c(CF)ccc4[nH]ncc34)cc2s1)[C@@H]1C[C@@H]1F` [Example 36, (1S,2S)-2-fluoro-N-(6-(5-(fluoromethyl)-1H-indazol-4-yl)benzo[d]thiazol-2-yl)cyclopropane-1-carboxamide], the IC50 was in the range of 0.101 to 0.5 µM.

For `O=C(Nc1cn2cc(-c3c(Br)ccc4[nH]ncc34)ccc2n1)C1CC1` [Example 228, N-(6-(5-bromo-1H-indazol-4-yl)imidazo[1,2-a]pyridin-2-yl)cyclopropanecarboxamide], the half-maximal inhibitory concentration (IC50) is above 1 µM.

The test system of a further assay is human peripheral blood pan T cells. The assay is described as follows: IFNγ and IL-2 analysis of human peripheral pan T cells. The assay is classed as cell-based. Conditions: T-cell, IFNγ secretion, CD3/CD28 bead stimulation, 100 nM Prostaglandin E2, 24 hr, read-out: IFNγ (EC50). As to the method:
IFNγ and IL-2 Analysis of Human Peripheral Pan T Cells
Human peripheral blood pan T cells were purchased from STEMCELL™ Technologies Inc. Human peripheral blood pan T cells were thawed and suspended in DMEM media (10% FBS and 10 Penicillin/Streptomycin). 8×10^4 T cells were seeded in 96-well plate and incubated with various concentration of compounds and 100 nM Prostaglandin E2 for 1 hr. T cells were stimulated with Dynabeads Human T-Activator CD3/CD28 (Life Technologies) at a 1:3 cells: beads ratio. […] Data were analyzed with an MESO Quickplex SQ120 (Mesoscale Discovery).
In Table 3, the values represent + for >1000 nM, ++ 200-1,000 nM, +++ for <200 nM and − for not determined.
A word on the EC50: it is the concentration at which the effect is half-maximal. For `CSc1c(F)c(C)c(-c2ccn3nc(NC(=O)C4CC4)cc3c2)c2cn[nH]c12` [Example 562, N-(5-(6-fluoro-5-methyl-7-(methylthio)-1H-indazol-4-yl)pyrazolo[1,5-a]pyridin-2-yl)cyclopropanecarboxamide], the 50% effective concentration (EC50) lay within 0.2 to 1 µM.

Regarding `CCN(C)c1c(F)c(C)c(-c2ccc3nc(NC(=O)[C@@H]4C[C@@H]4F)cn3c2)c2cn[nH]c12` [Example 330, (1S,2S)-N-(6-(7-(ethyl(methyl)amino)-6-fluoro-5-methyl-1H-indazol-4-yl)imidazo[1,2-a]pyridin-2-yl)-2-fluorocyclopropane-1-carboxamide], the EC50 is 0.2 to 1 µM.

For `CCN(C)c1c(F)c(Cl)c(-c2ccc3nc(NC(=O)[C@@H]4C[C@@H]4F)sc3n2)c2cn[nH]c12` [Example 196, (1S,2S)-N-(5-(5-chloro-7-(ethyl(methyl)amino)-6-fluoro-1H-indazol-4-yl)thiazolo[5,4-b]pyridin-2-yl)-2-fluorocyclopropane-1-carboxamide], the half-maximal effective concentration (EC50) was 0.2 to 1 µM.

Turning to `CC(=O)N(C)c1c(F)c(C)c(-c2ccn3nc(NC(=O)[C@@H]4C[C@@H]4F)cc3c2)c2cn[nH]c12` [Example 550, (1S,2S)-2-fluoro-N-(5-(6-fluoro-5-methyl-7-(N-methylacetamido)-1H-indazol-4-yl)pyrazolo[1,5-a]pyridin-2-yl)cyclopropane-1-carboxamide], the EC50 fell in the range of 0.2 to 1 µM.

Staying with this assay, now noted: T-cell, IL-2 secretion, CD3/CD28 bead stimulation, 100 nM Prostaglandin E2, 24 hr, read-out: IL-2 (EC50).
Regarding `CCN(C)c1c(F)c(C)c(-c2ccc3nc(NC(=O)[C@@H]4C[C@@H]4F)cn3c2)c2cn[nH]c12` [Example 330, (1S,2S)-N-(6-(7-(ethyl(methyl)amino)-6-fluoro-5-methyl-1H-indazol-4-yl)imidazo[1,2-a]pyridin-2-yl)-2-fluorocyclopropane-1-carboxamide], the concentration giving a half-maximal response (EC50) lay in the range of 0.2 to 1 µM.

Take `CC(=O)N(C)c1c(F)c(C)c(-c2ccn3nc(NC(=O)[C@@H]4C[C@@H]4F)cc3c2)c2cn[nH]c12` [Example 550, (1S,2S)-2-fluoro-N-(5-(6-fluoro-5-methyl-7-(N-methylacetamido)-1H-indazol-4-yl)pyrazolo[1,5-a]pyridin-2-yl)cyclopropane-1-carboxamide]: the concentration giving a half-maximal response (EC50) was in the range of 0.2 to 1 µM.
